According to patent publication US12629347B2, “Compounds and dosage regimen for use in the prevention or treatment of chronic inflammatory and/or autoimmune diseases” (Immunic AG, priority 2017, dated 2026):
Where two headings read alike, the source gives them in different places. Marks after values point to notes of the source that are not given here.

What was measured:
[1] = Clinical study comparing treatment with and without pre-treatment phase: uric acid excreted in urine; assay type: in vivo, human; conditions: for Change in Median uric acid excreted in urine: Day 0 (first day of 50 mg dose), n 8
Description: A double-blind clinical study, Placebo controlled, Ascending Dose has been conducted. This study has been reported (Study Number P1-IMU-838-MAD).
Uric acid excretion in urine could be however modified with a pre-treatment period.

[2] = Phase I SAD study: RBC in urine / hematuria; assay type: in vivo, human
Procedure: (§1) During the IMU-838 (vidofludimus-calcium) phase I SAD study (Immunic study number P1-IMU-838-SAD), urine was collected from all volunteers and tested with respect to the amount of clinical relevant anions, including urate and oxalate. In addition, formation of anion crystals in the urine was measured. In this study, IMU-838 was tested as a single dose applied to male healthy volunteers. Five different dose regimens were tested which covered four different doses of IMU-838: 10 mg, 20 mg, 30 mg and 40 mg of IMU-838 in fastened patients, which means no food intake 10 hours prior to the treatment and two hours after dose application. In addition, one dose group received 10 mg of IMU-838 in fed state which means that the 10 mg dose was applied after a high-fat breakfast. Each group consisted of six healthy volunteers, except for the 40 mg dose group with only five volunteers.
Treatment of humans with IMU-838 leads to dose dependent increase of urate excretion through the urine and thus to formation of urate (micro)crystals.

[3] = Phase I MAD trial (P1-IMU-838-MAD): uric acid in 24 h urine, 14 days once daily without predosing; assay type: in vivo, human
Procedure: Each group consists of 16 patients with 12 individuals receiving active drug IMU-838 (either 30 or 40 mg per day) and 4 patients receiving placebo.
In a randomized, placebo controlled double blind clinical Phase I MAD trial (Immunic study number P1-IMU-838-MAD), IMU-838 was applied to healthy volunteers for 14 days in order to test the effects of IMU-838 on safety and biomarkers for repeated once daily doses over 14 days. In the first part of this study, 12 individuals were treated with 30 mg of IMU-838, 12 individuals were treated with 40 mg of IMU-838 and 8 individuals received placebo (4 individuals in each group). For all 32 individuals, urate levels in the urine was quantified in three periods of 24 hour urine collection. The first collection was at pre-dose (day 0). The second urine collection started four hours after intake of the first dose (day 1, 4 hours to 28 hours). The third collection of urine was performed on the last day of the 14 day treatment cycle (day 14, 4 hours to 28 hours). The amounts of uric acid at those timepoints is depicted in FIG. 2a.

[4] = Phase I SAD study: uric acid in 24 h collected urine; assay type: in vivo, human; conditions: for Uric acid, Pre dose (−24 h to 0): 24 h urine; for Increase of mean uric acid levels: post dose vs pre dose
Procedure: as §1
The pre-dose value was derived from urine collected 24 hours before application of IMU-838 tablets. The post dose value was obtained by collecting 24 hours urine starting 4 hours after intake of IMU-838.

[5] = Three week phase I trial with dose-in phase (25 mg then 50 mg): urate in 24 h urine; assay type: in vivo, human; conditions: all 20 subjects incl. placebo
Procedure: 8 individuals were treated with 25 mg for 7 days, followed by 14 day treatment with a dose of 50 mg once daily. Another 8 volunteers were treated with placebo (dose 1=0 mg) for 7 days followed by treatment of 50 mg IMU-838. 4 volunteers received placebo for the whole time.
Based on the observations on a) dose dependent effect of IMU-838 on urate levels in the urine and formation of small crystals (example 1) and b) the time course and dose dependence of urate level changes in single volunteers (example 2) a new therapeutic treatment scheme was invented. In this example a treatment scheme was applied to a three week clinical phase I trial consisting of two different doses “dose 1” of 25 mg daily dose and “dose 2” of 50 mg daily dose. 8 subjects received a lower dose 1 for 7 days followed by the higher (double) dose 2 for further 14 days, whereas another 8 subjects received placebo for 7 days then followed by treatment with the 50 mg high dose (dose 2). 4 subjects received placebo during the foll three week period. During this study urine was collected at four different timepoints (pre-dose, day 1, day 7, day 14) and analyzed for urate/uric acid levels.

[6] = Phase I SAD study (P1-IMU-838-SAD): plasma concentration after single dose; assay type: in vivo; conditions: human, oral, read-out: maximum plasma concentrations (cmax)
[7] = Clinical observations with vidofludimus: blood uric acid, urine RBC, hematuria; assay type: in vivo, human
Procedure: A novel class of compounds with an inhibitory effect on DHODH, in particular human DHODH, was found and described in EP 2 093 214 A1. Vidofludimus (CAS 717824-30-1) is the free acid of a compound according to formula (I) and is tested in clinical trials in human subjects. […] Higher dose means e.g. doses higher than […] once daily application of vidofludimus in humans. However, doses of compounds of formula (I), e.g. higher than 200 μmol once daily application, sometimes lead to undesirable side effects such as an increased risk of increased red blood cell count (RBC) in the urine (hematuria).
At high vidofludimus doses (i.e. ≥70 mg/day or single doses of ≥210 mg) a decrease in blood uric acid levels and an increase in urine red blood cell count were observed, in very rare cases, presenting as symptomatic hematuria during the first 7 days of treatment. Laboratory findings were consistent with post-renal events and de novo precipitates in the urinary tract.
A side effect that may also be termed adverse effect is a harmful and undesired effect resulting from medication during its use in the prevention and/or treatment of a patient with the inventive compound (I).

[8] = high doses, ≥70 mg/day or single doses of ≥210 mg

With COc1cccc(-c2ccc(NC(=O)C3=C(C(=O)O)CCC3)c(F)c2)c1 [IMU-838] the “urinary excretion of uric acid after treatment initiation” value ([1]; P1-IMU-838-MAD dose groups) was “increased in all but the 30 mg group”, the “Change in Median uric acid excreted in urine” value ([1]; Placebo pre-treatment then 50 mg) was 86.5 mg/24 h and the “Change in Median uric acid excreted in urine” value ([1]; Pre-dosing 25 mg for 6 days then 50 mg) was 49.5 mg/24 h. The “dose limiting side effects like hematuria” value ([2]; doses up to 40 mg of IMU-838) was “no dose limiting side effects like hematuria occurred”, the “RBC (red blood cell count) in urine” value ([2]; single doses 10 to 40 mg) was “not leading to increase of RBC” and the “increase of uric acid compared with pre-treatment” value ([3]; 30 mg and 40 mg groups, after the full 14 days treatment) was “around 30%”. For the same compound, the “amount of uric acid in 24 hour urine” value ([3]; 30 mg group, pre-dose (day 0) baseline) was 605.9 mg, the “increase of uric acid in urine” value ([3]; 30 mg once daily, after 14 days vs pre-dose) was 29% and the “increase of uric acid in urine at day one” value ([3]; 30 mg once daily, day 1 (4 to 28 hours)) was “no increase”. The “amount of uric acid in 24 hour urine” value ([3]; 30 mg once daily, day 14) was 686.2 mg, the “amount of uric acid in 24 hour urine” value ([3]; 40 mg group, pre-dose (day 0) baseline) was 541.4 mg and the “amount of uric acid in 24 hour urine” value ([3]; 40 mg once daily, day 14) was 699.3 mg. The “amount of uric acid in 24 hour urine” value ([3]; 40 mg once daily, first day (4-28 hours after intake)) was 620.3 mg, the “increase of uric acid in urine” value ([3]; 40 mg once daily, first day (4-28 hours) vs pre-dose) was 15.2% and the “Uric acid, Pre dose (−24 h to 0)” value ([4]; 10 mg fasted group, N = 6, baseline before dosing) was 520 mg/24 h. The “Uric acid, Pre dose (−24 h to 0)” value ([4]; 40 mg fasted group, N = 4, baseline before dosing) was 489^a mg/24 h, the “Uric acid, Post dose (4 to 28 h)” value ([4]; single dose 10 mg fasted, N = 6, 24 h urine) was 637 mg/24 h and the “Increase of mean uric acid levels” value ([4]; single dose 10 mg fasted) was 117 mg/24 h. For the same compound, the “Uric acid, Post dose (4 to 28 h)” value ([4]; single dose 40 mg fasted, N = 5, 24 h urine) was 734 mg/24 h, the “Increase of mean uric acid levels” value ([4]; single dose 40 mg fasted) was 245 mg/24 h and the “mean 24 hours urinary urate level” value ([5]; after 1 day of treatment (4-28 hours)) was 789.5 mg. The “mean increase in 24 hours urinary urate levels” value ([5]; after 1 day of treatment (4-28 hours), dose 1 25 mg) was 15%, the “mean 24 hours urinary urate level” value ([5]; after three weeks (day 21)) was 815.9 mg and the “overall increase of mean urinary urate level” value ([5]; day 21 vs first day of dose 2) was 4%. For the same compound, the “mean 24 hours urinary urate level” value ([5]; first day of dose 2 50 mg (day 7 of the full trial)) was 789.7 mg, the “mean 24 hours urinary urate level” value ([5]; pre-dose baseline) was 684.1 mg and the Cmax ([6]; single dose 10 mg IMU-838, fasted male healthy volunteers) was 1580 ng/mL. For the same compound, the Cmax ([6]; male, single dose 40 mg IMU-838, fasted) was 7860 ng/mL.

With COc1cccc(-c2ccc(NC(=O)C3=C(C(=O)O)CCC3)c(F)c2)c1 [vidofludimus] the symptomatic hematuria ([7]; daily doses of 35 mg) was “no cases of symptomatic hematuria”, the “blood uric acid levels” value [7, 8] was “decrease” and the “urine red blood cell count” value [7, 8] was “increase”.
